Assay results published in patent US6703207B2, “Method of screening substances with a glycidyl methacrylate covered styrene-glycidyl methacrylate polymer” (priority 1996, dated 2004).

What was measured:
[1] = system: protein with a molecular weight of about 110 kDa; assay: Isolation and competition with DQ2511-immobilized particles, HeLa cytoplasmic fraction; type: binding; conditions: 1.0 M KCl eluate
Method: To these washed DQ2511-not-immobilized SG-EGDE particles and DQ2511-immobilized-SG-EGDE particles, 1 ml of the diluted cytoplasmic fraction was added and mixed. […] The wash solution and eluate solutions were stored at −80° C.

[2] = system: protein with a molecular weight of about 170 kDa; assay: Isolation and competition with DQ2511-immobilized particles, lysate of rat DRG cell; type: binding; conditions: concentrated crude lysate of rat DRG cell
Method: Microspheres and the concentrated crude lysate of rat DRG cell were mixed and centrifuged to separate substances binding to DQ2511 which was immobilized on particles from the mixture. The procedures of binding, washing and detection of protein were performed as described above. […] In the above procedure, about 10 ng of 170 kDa DQ2511-binding protein was obtained from 1 mg of the DQ2511-immobilized SG-EGDE particles.

[3] = biological target: T1, Ref-1 redox activity on NF-κB (Homo sapiens, UniProt P27695); assay: Gel-shift assay of NF-κB DNA binding, NF-κB partially purified from Jurkat cells; type: biochemical
T1 construct: His6 (pET14b) (N); made in house; NF-κB: partially purified from Jurkat cells
T1 sequence (P27695 whole entry): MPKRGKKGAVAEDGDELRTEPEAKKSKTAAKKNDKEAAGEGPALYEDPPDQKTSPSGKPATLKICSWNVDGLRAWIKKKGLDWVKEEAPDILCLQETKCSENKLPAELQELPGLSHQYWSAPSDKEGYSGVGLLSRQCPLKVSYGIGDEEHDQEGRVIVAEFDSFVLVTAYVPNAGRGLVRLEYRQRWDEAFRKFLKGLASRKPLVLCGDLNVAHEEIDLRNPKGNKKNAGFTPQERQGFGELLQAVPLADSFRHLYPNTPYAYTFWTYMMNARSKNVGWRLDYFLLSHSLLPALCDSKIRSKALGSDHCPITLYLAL
Method: Prior to the conduction of the investigation, there are some considerations. […] There are two cases; one is an oxidized condition where these cystine residues are bound to each other through an S-S bond; and the other one is a reduced condition where they are individually existing with an SH-group. Therefore, NF-κB was treated with dithiothreitol (DTT) that is known as a reductant to make the state of NF-κB to be reduction.

[4] = biological target: recombinant protein of Ref-1 (Homo sapiens, UniProt P27695); assay: Binding of recombinant Ref-1 to E3330-immobilized particles
recombinant protein of Ref-1, sequence (P27695 whole entry): as above

[5] = Solubility in water; type: physicochemical
[6] = biological target: T2, Ref-1 acting on p50/p50 homo-dimer or p65/p50 hetero-dimer (Homo sapiens, UniProt P27695); assay: Gel-shift assay with recombinant p65 and p50 subunits; type: biochemical
T2 construct: His6 (pET14b) (N); made in house; p50 and p65: baculovirus expression system
T2 sequence (P27695 whole entry): as above

[7] = biological target: T3, Ref-1 amino acid sequence 72 a.a. to 88 a.a. (Homo sapiens, UniProt P27695); assay: Binding of Ref-1 fragment 72 a.a. to 88 a.a. to E3330-immobilized particles
T3 construct: made in house

[8] = system: NF-κB; assay: Transfection of NF-κB-regulated luciferase plasmid into Jurkat cells; type: cell-based; conditions: luciferase genes regulated by NF-κB
Text: The functions of NH2-E3330 were compared with those of E3330 with respect to transcriptional activation abilities of NF-κB.

[9] = biological target: T4, Ref-1 (Homo sapiens, UniProt P27695); assay: Far Western method using 14C-labeled E3330; type: binding
T4 construct: His6 (pET14b) (N); made in house
T4 sequence (P27695 whole entry): as above

[10] = biological target: T4, Ref-1; assay: AP nuclease activity of recombinant Ref-1 on AP plasmid DNA; type: biochemical; conditions: supercoiled AP plasmid DNA to open circular
Method: First, concerning AP nuclease activity, the plasmid pBluescript SK+DNA (50 μg) was treated with 50 mM sodium citrate (pH 3.5) at 60° C. for 15 minutes, followed by dialysis in 50 mM Tris-HCl (pH 7.4) at 4° C. for about 24 hours.

[11] = system: proteins with a molecular weight of about 60, 38, and 27 kDa; assay: Isolation and competition with E3330-immobilized SG-EGDE particles, Jurkat nuclear extract; type: binding; conditions: 1M KCl eluate
Method: From the purification using P.1, there was not observed any specific protein band specifically eluted from E3330-immobilized particles.
The identification of the specific proteins were conducted by electrophoresis using SDS-PAGE.

[12] = biological target: protein with a molecular weight of about 38 kDa (Ref-1) (Homo sapiens, UniProt P27695); assay: Isolation and competitive binding-inhibition with E3330-immobilized SG-EGDE particles, Jurkat cytoplasmic P.5 fraction
protein with a molecular weight of about 38 kDa (Ref-1), sequence (P27695 whole entry): as above

[13] = system: protein with a molecular weight of about 30 kDa; assay: Isolation and competition with H-9-immobilized SG-EGDE particles, HeLa cell nuclear extracts; type: binding; conditions: for elution of the 30 kDa protein from H-9-immobilized particles by free drug: elution with 3 mM drug; for yield of the 30 kDa protein in competition experiment: free drug added simultaneously
Method: HeLa cell nuclear extracts (NE) were prepared according to the method as described previously (Dignam, J. D., Lebovitz, R. M. and Roeder, R. G. (1983). Accurate transcription by RNA pol II in a soluble extracts from isolated mammalian nucleic. Nucleic Acids Res 11. 1475-1489).

With CNC(=O)c1cccc(NCC(=O)NCCc2ccc(OC)c(OC)c2)c1 [DQ2511] the “protein band not observed in reference control (specific binding)” value (“protein band not observed” below) [1] was “specifically binding to DQ2511” and the “protein obtained from immobilized particles (binding ability)” value [2] was “possessing DQ2511-binding ability”.
For CCCCCCCCC/C(=C\C1=C(C)C(=O)C(OC)=C(OC)C1=O)C(=O)O [E3330], the “enhancement of the DNA-binding activity of NF-κB by Ref-1” value [3] was “reduced”, the “increase in the DNA-binding activity of NF-κB by DTT” value [3] was “did not inhibit” and the “binding of recombinant Ref-1 to immobilized drug” value [4] was “specifically bound to E3330”. For the same molecule, the solubility in water [5] was “insoluble in water”, the “enhancement of DNA-binding ability of p50/p50 homo-dimer or p65/p50 hetero-dimer by Ref-1” value [6] was “reduced” and the “binding of recombinant protein possessing only 72 a.a. to 88 a.a. of Ref-1” value [7] was “confirmation of its binding ability against E3330”. For the same molecule, the “transcriptional activation abilities of NF-κB” value [8] was “reduced”, the “binding in Far Western method” value [9] was “bound to Ref-1” and the “AP nuclease activity of Ref-1” value [10] was “not inhibited”. For the same molecule, the “protein bands not observed in reference control (specific binding)” value [11] was “specifically binding to E3330”, the “protein band not observed” value ([12]; P.5 fraction, 1 M KCl eluate, SDS-PAGE silver staining) was “specifically binding to E3330” and the “yield of the about 38 kDa protein in competitive binding-inhibitory experiment” value ([12]; free E3330 at the same moles as immobilized NH2-E3330) was “lowered”.
With CNCCNS(=O)(=O)c1cccc2cnccc12 [H-8] the “elution of the 30 kDa protein from H-9-immobilized particles by free drug” value [13] was “same protein band was obtained” and the “yield of the 30 kDa protein in competition experiment” value [13] was “lower yield”.
With NCCNS(=O)(=O)c1cccc2cnccc12 [H-9] the “protein band not observed” value ([13]; HeLa nuclear extract, SDS-PAGE silver staining) was “specifically binding to H-9”, the “elution of the 30 kDa protein from H-9-immobilized particles by free drug” value [13] was “same protein band was obtained” and the “yield of the 30 kDa protein in competition experiment” value [13] was “lower yield”.
